Measured values as given in US20020052370A1, “Cyclopentyl-substituted glutaramide derivatives as inhibitors of neutral endopeptidase” (priority 2000, published 2002).
Blank lines part the entries; values can stand above or below the compound they belong to.

Tests used:
[1] = test system: vaginal and clitoral blood flow; assay: Anaesthetised rabbit model of sexual arousal: pelvic nerve stimulated genital blood flow by laser Doppler; format: in vivo, Female New Zealand rabbits
Excerpt: Animal Model of arousal response
We have developed an animal model that mimics the physiological arousal response observed during female sexual arousal and directly reflects the clinical data obtained in human volunteers. The model uses Laser Doppler technologies to record small changes in vaginal and clitoral blood flow induced by pelvic nerve stimulation or vasoactive neurotransmitters. During sexual arousal there is an increase in genital blood flow resulting from increased innervation from the pelvic nerve. This increase in genital blood flow leads to increased genital lubribriation and genital sensitivity which are associated with sexual arousal. The major cause of FSAD is decreased genital blood flow and this manifests itself as reduced vaginal, labial and clitoral engorgement. Treatment of women with FSAD is achievable by restoration of the normal sexual arousal response. This can be achieved by enhancing genital blood flow.
The title product from Example 29 was administered using this animal model according to the following protocol to show an enhancement in pelvic nerve stimulated increases in genital blood flow in the rabbit.
Two routes of administration were studied: a) intravenous administration and b) topical administration. Both studies used the anesthatised rabbit model according to the following protocol.
Female New Zealand rabbits (˜2.5 kg) were pre-medicated with a combination of Medetomidine (Domitor®) 0.5 ml/kg i.m., and Ketamine (Vetalar®) 0.25 ml/kg i.m. whilst maintaining oxygen intake via a face mask. The rabbits were tracheotomised using a Portex™ uncuffed endotracheal tube 3 ID, connected to ventilator and maintained a ventilation rate of 30-40 breaths per minute, with an approximate tidal volume of 18-20 ml, and a maximum airway pressure of 10 cm H2O. Anaesthesia was then switched to Isoflurane and ventilation continued with O2 at 2 l/min. The right marginal ear vein was cannulated using a 23 G or 24 G catheter, and Lactated Ringer solution perfused at 0.5 ml/min. The rabbit was maintained at 3% Isoflurane during invasive surgery, dropping to 2% for maintenance anaesthesia.
A ventral midline incision was made into the abdominal cavity. The incision was about 5 cm in length just above the pubis. The fat and muscle was bluntly dissected away to reveal the hypogastric nerve which runs down the body cavity. It was essential to keep close to the side curve of the pubis wall in order to avoid damaging the femoral vein and artery which lie above the pubis. The sciatic and pelvic nerves lie deeper and were located after further dissection on the dorsal side of the rabbit. Once the sciatic nerve is identified, the pelvic nerve was easily located. The term pelvic nerve is loosely applied; anatomy books on the subject fail to identify the nerves in sufficient detail. However, stimulation of the nerve causes an increase in vaginal and clitoral blood flow, and innervation of the pelvic region. The pelvic nerve was freed away from surrounding tissue and a Harvard bipolar stimulating electrode was placed around the nerve. The nerve was slightly lifted to give some tension, then the electrode was secured in position. Approximately 1 ml of light paraffin oil was placed around the nerve and electrode. […]
A frequency response curve was determined at the start of each experiment in order to determine the optimum frequency to use as a sub-maximal response, normally 4 Hz. […]

[2] = 1.0 mg/kg iv bolus infusion, submaximal stimulation (eg 4 Hz), anaesthetised rabbit, n=3

SMILES: CCC[C@H](CC1(C(=O)Nc2nnc(CC)s2)CCCC1)C(=O)O [Example 29, (2R)-2-[(1-{[(5-Ethyl-1,3,4-thiadiazol-2-yl)amino]carbonyl}cyclopentyl)methyl]pentanoic acid]
increase in clitoral blood flow (peak, pelvic nerve stimulated) [1, 2]: 131%
increase in vaginal blood flow (peak, pelvic nerve stimulated) [1, 2]: 92%
pelvic nerve stimulated increases in genital blood flow ([1]; both intravenous and topical administration, clinically relevant doses, rabbit): significantly enhanced
peak pelvic nerve stimulated increase in vaginal blood flow ([1]; intravaginal topical application (0.2 mg/ml printed), vs mean control flow increases, n=4, P<0.001): significantly enhanced
basal (non-stimulated) vaginal blood flow ([1]; intravaginal topical application, compared to control flow, n=4): no effect

melting point: 80 to 85 °C
SMILES: O=C(O)C(CCc1ccccc1)CC1(C(=O)Nc2cccnc2)CCCC1 (stereo not drawn) [Example 41, 4-Phenyl-2-({1-[(3-pyridinylamino)carbonyl]cyclopentyl}methyl)butanoic acid]
